Results taken from paper PMC9721423, “Novel benzo chromene derivatives: design, synthesis, molecular docking, cell cycle arrest, and apoptosis induction in human acute myeloid leukemia HL-60 cells” (Journal of Enzyme Inhibition and Medicinal Chemistry, 2022).
Like-named read-outs stand apart in the source and are kept apart here.

Legend:
Assay in all cases: cells
Set-up in all cases: species or system NCI-60 human tumour cell lines; NCI-60 five-dose growth inhibition screen, sulforhodamine B protein stain
MDA-MB-231/ATCC = details: Homo sapiens, MDA-MB-231, 48 h
Summary of the method: (§1)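 NCI60 protocol: compounds (DMSO:glycerol stocks) tested at a single concentration of 10^−5 M for 48 h, growth read by sulforhodamine B protein staining as percent growth. For selected compounds, dose–response curves gave GI50, TGI and LC50; selectivity taken as full-panel MG-MID divided by subpanel MG-MID.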

UO-31 = details: Homo sapiens, UO-31, 48 h; read-out: GI50 5a
Summary of the method: as §1

UACC-257 = details: Homo sapiens, UACC-257, 48 h; read-out: GI50 5a
Summary of the method: as §1

MDA-MB-435 = details: Homo sapiens, MDA-MB-435, 48 h
Summary of the method: as §1

COLO 205 = details: Homo sapiens, COLO 205, 48 h
Summary of the method: as §1

BT-549 = details: Homo sapiens, BT-549, 48 h
Summary of the method: as §1

TK-10 = details: Homo sapiens, TK-10, 48 h; read-out: GI50 5a
Summary of the method: as §1

OVCAR-4 = details: Homo sapiens, OVCAR-4, 48 h; read-out: GI50 5a
Summary of the method: as §1

RPMI-8226 = details: Homo sapiens, RPMI-8226, 48 h
Summary of the method: as §1

Structure (SMILES) | GI50 (MDA-MB-231/ATCC; read-out: GI50 5a) [nM] | GI50 (UO-31) [nM] | GI50 (UACC-257) [µM] | GI50 (MDA-MB-435; read-out: GI50 5a) [nM] | GI50 (COLO 205; read-out: GI50 5a) [nM] | GI50 (BT-549; read-out: GI50 5a) [nM] | GI50 (TK-10) [µM] | GI50 (OVCAR-4) [nM] | GI50 (RPMI-8226; read-out: GI50 5a) [nM] | GI50 (MDA-MB-231/ATCC; read-out: GI50 6a) [nM] | GI50 (MDA-MB-435; read-out: GI50 6a) [nM] | GI50 (COLO 205; read-out: GI50 6a) [nM] | GI50 (BT-549; read-out: GI50 6a) [nM] | GI50 (RPMI-8226; read-out: GI50 6a) [nM]
N=C(NO)C1=C(N)Oc2c(ccc3ccccc23)C1c1ccccc1 (centres unmarked) [5a, 2-Amino-4-phenyl-N-hydroxy-4H-benzo[h]chromene-3-carboxamidine] | 630 | 440 | 18.1 | 30 | 460 | 1250 | 16.8 | 760 | 380 |  |  |  |  | 
CC(=O)NC1=C(C#N)C(c2ccccc2)c2ccc3ccccc3c2O1 (centres unmarked) [6a, N-(3-Cyano-4-phenyl-4H-benzo[h]chromen-2-yl)acetamide] |  |  |  |  |  |  |  |  |  | 1250 | 230 | 610 | 990 | 410
